Laboratory results published in patent US7875343B2, “Anti-microbial carpet underlay and method of making” (L & P Property Management Company, priority 2003, dated 2011).
Read-outs that look alike come from different tables or passages of the source.

Key:
Aspergillus niger [1] = tested on: Aspergillus niger
Experimental: (§1) Biocidal effectiveness of the rebonded carpet pad 12 and/or film 18 according the present invention may be determined by measuring inhibition of growth of bacterial and/or fungus using AATCC (American Association of Textile Chemists and Colorists) 174, ASTM E2180-1, and ASTM D 3273 test protocols compared to non-treated control standards. The AATCC 174 protocol was developed for determining the antimicrobial activity of new carpet materials.
Inhibitory mold activity was also tested by the ASTM E2180-01 test method. […] The total combined concentration is the sum of the concentration in the pad 12 of a specimen and the concentration in the film 18 of the specimen.

Klebsiella pneumoniae [2] = tested on: Klebsiella pneumoniae
Text: as §1
(§2) A number of specimens of carpet underlay 10 were made by methods described above, with various concentrations of zinc pyrithione in the binder 16 and film 18 for testing to determine levels that provide an effective antimicrobial effect. The specimens included a film 18 on one side as illustrated in FIG. 1. This allowed testing of the foam side of the specimens to indicate antimicrobial effect of the pad 12 without film 18 and testing of the film side to indicate antimicrobial effect of the pad 12 with film 18. The AATCC 174 test method provides for testing both unwashed and washed samples. Washed samples were treated according to the AATCC 138 protocol.
(§3) The AATCC 174 test method includes three parts. Part I is a qualitative test for antibacterial activity. Test specimens are placed into contact with a nutrient agar which has been streaked with a bacterial culture. The specimens are then incubated. After incubation, a clear area of interrupted growth underneath and along the sides of the test specimen indicates antibacterial activity of the specimen. Standard strains of bacteria are used, with Staphylococcus aureus and Klebsiella pneumoniae being the representative organisms.

Staphylococcus aureus [3] = settings: unwashed foam side specimen with 751 ppm of zinc pyrithione
Text: as §1, §2, §3

Aspergillus niger [4] = settings: film side specimens, total minimum combined concentration (pad + film) of about 1600 ppm
Text: as §1

Aspergillus niger [5] = settings: 28 degrees C., seven days
Text: as §1, §2

Klebsiella pneumoniae [6] = tested on: Klebsiella pneumoniae; remark: listed apart in the source
Text: as §1, §2
(§4) The AATCC 174, Part II test provides a quantitative procedure for the evaluation of the degree of antibacterial activity. Test specimens are inoculated with the test microorganisms. After incubation, the bacteria are eluted from specimens by shaking in 100 milliliters of liquid. The number of bacteria present in the liquid is determined and the percent reduction produced by the specimen is calculated.

Staphylococcus aureus [7] = tested on: Staphylococcus aureus
Text: as §1, §2, §4

[8] = washed foam side specimen containing 751 ppm of zinc pyrithione
[9] = washed foam side specimen containing 1096 ppm of zinc pyrithione
[10] = all unwashed and washed film and foam side specimens, 500 ppm or more in the film and 1096 ppm in the pad

**Q.** How did the “inhibitory activity for Aspergillus niger” value (Aspergillus niger [1]; film side specimens, total minimum combined concentration (pad + film) of 1600 ppm) turn out when [O-]n1ccccc1=S.[O-]n1ccccc1=S.[Zn+2] [zinc pyrithione, Bis(1-hydroxy-2(1H)-pyridinethionato-O,S)-(T-4)Zinc] was run?
**A.** The value was “Good inhibitory activity”.

**Q.** What about the “inhibitory activity for Aspergillus niger” value (Aspergillus niger [1]; total combined concentration of 1251 ppm, i.e. 751 ppm in the pad and 500 ppm in the film) of the same molecule?
**A.** The value was “Good results were achieved for some, but not all, specimens”.

**Q.** And the “growth of Klebsiella pneumoniae underneath and along the sides of the specimen” value (Klebsiella pneumoniae [2]; all unwashed and washed foam side specimens with 1096 ppm or more of zinc pyrithione)?
**A.** Its value is “inhibited the growth”.

**Q.** And the “zone of inhibition for Klebsiella pneumoniae” value (Klebsiella pneumoniae [2]; unwashed foam side specimen with 751 ppm of zinc pyrithione)?
**A.** Its value is “one”.

**Q.** What about the “zone of inhibition for Staphylococcus aureus” value (Staphylococcus aureus [3]) of the same molecule?
**A.** The value was “two”.

**Q.** And the “Aspergillus niger mold colonization” value (Aspergillus niger [4])?
**A.** Its value is “No Aspergillus niger mold colonization was observed”.

**Q.** And the “fungus growth (Aspergillus niger)” value (Aspergillus niger [5]; washed and unwashed film side samples, 1500 ppm or greater of zinc pyrithione in the film)?
**A.** Its value is “No growth was observed”.

**Q.** What about the “fungus growth (Aspergillus niger)” value (Aspergillus niger [5]; washed and unwashed foam side samples, 1096 ppm of zinc pyrithione in the pad) of the same molecule?
**A.** The value was “no observable fungus growth”.

**Q.** And the “reduction in the numbers of Klebsiella pneumoniae” value (Klebsiella pneumoniae [6]; [8])?
**A.** The value was 90%.

**Q.** And the “reduction in the numbers of Klebsiella pneumoniae” value (Klebsiella pneumoniae [6]; [9])?
**A.** Its value is 90%.

**Q.** What about the “average reduction in Staphylococcus aureus” value (Staphylococcus aureus [7]; [10]) of the same molecule?
**A.** The value was 92%.

**Q.** And the “reduction in Staphylococcus aureus (minimum over specimens)” value (Staphylococcus aureus [7]; [10])?
**A.** The value was “at least 66%”.

**Q.** And the “reduction in the numbers of Staphylococcus aureus” value (Staphylococcus aureus [7]; [8])?
**A.** The value was 90%.

**Q.** And the “reduction in the numbers of Staphylococcus aureus” value (Staphylococcus aureus [7]; [9])?
**A.** Its value is 90%.
